Data published in paper PMC11124525, “Pharmacokinetic–Pharmacodynamic Correlation Analysis of Rhodiola crenulata in Rats with Myocardial Ischemia” (Pharmaceuticals, 2024).
“Also recorded” adds a separate entry of the source. Like-named read-outs stand apart in the source and are kept apart here.

Key:
SOD = test: PK-PD sigmoid-Emax model, PD index SOD in MDG rats; type: in vivo, SD rats; parameters: Ke0: unit not given beside the values
LDH = test: PK-PD sigmoid-Emax model, PD index LDH in MDG rats
Excerpt: Subsequently, we incorporated the PK and PD data to conduct PK-PD modeling through DAS.
Therefore, PK-PD correlation analysis was used in this study, linking dynamic concentration–time processes and effect–time profile relationships [20, 21, 22]. […] The model adopted in this study is the S-Emax model. In the equation, γ means the shape factor in the formula, affecting the slope and determining the steepness of the curve. Emax can provide the maximum response intensity, and ED50 is for evaluating the safety of the drug, which is understood as the amount of the drug that causes 50% of the maximum response intensity.
Plasma creatine kinase (CK), hydroxybutyrate dehydrogenase (HBDH), lactate dehydrogenase (LDH), and superoxide dismutase (SOD) activity was determined using an automatic biochemical analyzer.
The activity of the CK, HBDH, LDH, and SOD of plasma samples collected at different time points was determined using an automatic biochemical analyzer for PD index evaluation. […] Two compartmental methods were used, employing the drug and statistics, which was supplied by the Chinese Pharmacological Society. Then, the efficacy indicators were fitted in the PK-PD model.

CK = test: PK-PD sigmoid-Emax model, PD index CK in MDG rats; type: in vivo, SD rats; parameters: Emax: unit not given beside the values
[1] = PK of five RC components in pituitrin-induced myocardial ischemia (MDG) rats after oral RC extract, HPLC-QQQ-MS/MS, DAS; type: in vivo, SD rats; conditions: for Change of CLZ/F in MDG compared with SDG / Change of Cmax in MDG compared with SDG: MDG vs SDG rats; for AUC(0-t) / AUC(0-inf) / CL/F / Cmax / MRT / MRT inf / Tmax / Vd/F / half-life: rat, plasma; for AUC(0-t): read-out: AUC(0−t); for AUC(0-inf): read-out: AUC(0−∞); for CL/F: read-out: CLz/F (converted); for Cmax: read-out: Cmax; for MRT: read-out: MRT(0−); for MRT inf: read-out: MRT(0−∞); for Vd/F: read-out: Vz/F; for half-life: read-out: t1/2z (converted)
Protocol: (§1) The drug concentration in plasma was calculated using the standard curve, and the mean blood concentration was plotted against the time to obtain the mean blood concentration–time curve (Figure 4).
(§2) The rat model of MI was made with Pit. The rats were divided into a sham operation group (SG), sham operation administration group (SDG), model group (MG), and model administration group (MDG) (n = 6 for each group). The MI model was prepared via an intraperitoneal injection (a single time) of Pit in the MG and MDG, with a dosage of 20 U/kg and a volume of 10 mL/kg. At the same time, the rats in the SG and SDG groups were given the same volume of saline in the same way.
(§3) RC extract (2 g/kg, equivalent to human clinical equivalent dose) was given to rats via oral administration in SDG and MDG, and the same volume of normal saline was orally administered to the SG and MG. Rats were fasted for 12 h before the experiment. Blood was collected from the fundus venous plexus at 0, 5, 10, 15, 30, 45 min, 1, 2, 4, 6, 8, 12, and 24 h after in gavage, placed in a centrifuge tube impregnated with heparin sodium, centrifuged at 3500 rpm for 15 min, and then the plasma was collected and divided into two parts. One part was used for biochemical index determination and the other part was used to determine the content of pharmaceutical ingredients in vivo. After the experiment, the rats were sacrificed, and the hearts were placed in paraformaldehyde for histopathological analysis.
(§4) The plasma sample of 100 μL was accurately absorbed, 50 μL internal standard solution (Nimodipine, 500 ng/mL) was added, then 300 μL acetonitrile precipitated protein was added, vortex for 10 min, placed under ultrasound for 3 min, centrifuged at 13,000 rpm for 10 min, and then the supernatant was transferred to another centrifuge tube. It was then concentrated until dry with a rotary evaporator. The residue was redissolved with 100 μL 50% acetonitrile, swirled for 1 min, placed under ultrasonic for 3 min, centrifuged at 13,000 rpm for 10 min, and the supernatant was taken for analysis.
(§5) A validated HPLC-QQQ-MS/MS method was used for the determination of drug-derived components in plasma samples at different time points. The accompanying standard curve was substituted to calculate the content of the compounds to be measured, and then the PK parameters were calculated using DAS software (version 3.2.8), and the blood concentration–time curve was plotted using GraphPad Prism (version 8.0.2). PK behavior was compared between the sham operation and model group, and PK models were established, respectively.

[2] = rat
Protocol: A series concentration mixed reference solution with different concentrations was added to 100 μL plasma, and was treated according to the method under Section 4.6 to obtain the matrix standard curve sample. Samples with concentrations of 400, 100, and 10 ng/mL, respectively, were taken as quality control (QC) samples of high, medium, and low concentrations (HQC, MQC, LQC). The method was validated, including linearity, inter-day/intra-day precision, repeatability, stability, extraction recovery, and matrix effect, according to FDA bioanalytical method validation guidelines.

HBDH = test: PK-PD sigmoid-Emax model, PD index HBDH in MDG rats; type: in vivo, SD rats; parameters: unit not given beside the values
[3] = cited from earlier work
AST = test: PK-PD sigmoid-Emax model, PD index AST in MDG rats; type: in vivo, SD rats; parameters: unit not given beside the values
[4] = PK of five RC components in sham operation administration (SDG, normal) rats after oral RC extract, HPLC-QQQ-MS/MS, DAS; type: in vivo, SD rats; conditions: rat, SDG rats, oral RC extract 2 g/kg, plasma, mean ± SD, n = 6; for AUC(0-t): read-out: AUC(0−t); for AUC(0-inf): read-out: AUC(0−∞); for CL/F: read-out: CLz/F (converted); for Cmax: read-out: Cmax; for MRT: read-out: MRT(0−); for MRT inf: read-out: MRT(0−∞); for Tmax: read-out: Tmax; for Vd/F: read-out: Vz/F; for half-life: read-out: t1/2z (converted)
Protocol: as §1, §2, §3, §4, §5

[5] = in vivo, MDG (myocardial ischemia) rats, oral RC extract 2 g/kg, mean ± SD, n = 6
[6] = SD, po, 2 g/kg, MDG (myocardial ischemia) rats, oral RC extract 2 g/kg, mean ± SD, n = 6, read-out: Tmax
[7] = SD, po, 2 g/kg, according to the PK results, group not given, oral RC extract, read-out: Tmax (approximate)
[8] = MDG (myocardial ischemia) rats, oral RC extract 2 g/kg, mean ± SD, n = 6

`O=c1c(O)c(-c2ccc(O)cc2)oc2cc(O)cc(O)c12` [Kaempferol, kaempferol] gave an Emax (SOD) of 68.398, a Ke0 (SOD) of 0.115 and an Emax (LDH) of 599.812. For the same molecule, the Emax (CK) was 2736.472, the Ke0 (CK) was 2.998 and the “Change of CLZ/F in MDG compared with SDG” value ([1]; oral RC extract 2 g/kg) was “marked decreasing tendency; also recorded: decreased significantly”. For the same molecule, the “Change of Cmax in MDG compared with SDG” value ([1]; oral RC extract 2 g/kg) was “increased significantly; also recorded: significantly increased”, the AUC(0-t) [1, 5] was 354 ± 50.4 ng·h/mL and the AUC(0-inf) [1, 5] was 645 ± 179 ng·h/mL. For the same molecule, the CL/F [1, 5] was 140 mL/min/kg, the Cmax [1, 5] was 38.4 ± 4.92 ng/mL and the MRT [1, 5] was 9.05 ± 0.7 h. It also gave an MRT inf [1, 5] of 30.9 ± 14.1 h, a Tmax ([1]; in vivo, MDG (myocardial ischemia) rats, oral RC extract 2 g/kg, mean ± SD, n = 6, read-out: Tmax) of 0.75 h and a Vd/F [1, 5] of 245 ± 67 L/kg. For the same molecule, the half-life [1, 5] was 22.7 ± 10.7 h, the “Stability RE (%)” value ([2]; 10 ng/mL) was 102.9% and the “Stability RE (%)” value ([2]; 400 ng/mL) was 94.57%. The “Stability RE (%)” value ([2]; 48 h, 10 ng/mL) was 101.5%, the “Stability RE (%)” value ([2]; 48 h, 50 ng/mL) was 90.22% and the “Stability RE (%)” value ([2]; 48 h, 400 ng/mL) was 92.55%. For the same molecule, the “Stability RE (%)” value ([2]; 10 days, 50 ng/mL) was 99.12%, the “Stability RE (%)” value ([2]; 10 days, 400 ng/mL) was 100.4% and the Emax (HBDH) was 6565.084. The Ke0 (HBDH) was 0.928, the “AUC, MRT, t1/2, and Cmax in modeled rats” value ([3]; modeled rats (disease state)) was “increased” and the “Clearance in modeled rats” value ([3]; modeled rats (disease state)) was “decreased”. For the same molecule, the Emax (AST) was 1422.742, the Ke0 (AST) was 2.998 and the AUC(0-t) ([4]; in vivo) was 306 ± 30.5 ng·h/mL. For the same molecule, the AUC(0-inf) ([4]; in vivo) was 427 ± 95.4 ng·h/mL, the CL/F ([4]; in vivo) was 203 mL/min/kg and the Cmax ([4]; in vivo) was 31.2 ± 1.53 ng/mL. The MRT ([4]; in vivo) was 8.54 ± 0.55 h, the MRT inf ([4]; in vivo) was 19.4 ± 9.37 h and the Tmax ([4]; in vivo) was 1.67 ± 1.21 h. For the same molecule, the Vd/F ([4]; in vivo) was 224 ± 107 L/kg and the half-life ([4]; in vivo) was 14.1 ± 8.42 h.
For `OC[C@H]1O[C@@H](OCCc2ccc(O)cc2)[C@H](O)[C@@H](O)[C@@H]1O` [Salidroside, salidroside], the Emax (SOD) was 71.79, the Ke0 (SOD) was 0.025 and the Emax (LDH) was 482.587. For the same molecule, the Ke0 (LDH) was 2.476, the Emax (CK) was 2288.494 and the Ke0 (CK) was 2.698. The “Change of Cmax in MDG compared with SDG” value ([1]; oral RC extract 2 g/kg) was “increased significantly; also recorded: significantly increased”, the Tmax [1, 6] was 0.83 ± 0.13 h and the Tmax [1, 7] was about 1 h. For the same molecule, the AUC(0-t) [1, 8] was 7790 ± 1160 ng·h/mL, the AUC(0-inf) [1, 8] was 10000 ng·h/mL and the CL/F [1, 8] was 8.67 mL/min/kg. For the same molecule, the Cmax [1, 8] was 1350 ± 133 ng/mL, the MRT [1, 8] was 6.7 ± 0.61 h and the MRT inf [1, 8] was 16.7 ± 9.83 h. For the same molecule, the Vd/F [1, 8] was 10.7 ± 7.46 L/kg, the half-life [1, 8] was 15.4 ± 11.2 h and the “Stability RE (%)” value ([2]; 10 ng/mL) was 90.22%. The “Stability RE (%)” value ([2]; 400 ng/mL) was 99.82%, the “Stability RE (%)” value ([2]; 48 h, 10 ng/mL) was 89.72% and the “Stability RE (%)” value ([2]; 48 h, 50 ng/mL) was 90.35%. The “Stability RE (%)” value ([2]; 48 h, 400 ng/mL) was 98.56%, the “Stability RE (%)” value ([2]; 10 days, 10 ng/mL) was 88.35% and the “Stability RE (%)” value ([2]; 10 days, 50 ng/mL) was 100.1%. The “Stability RE (%)” value ([2]; 10 days, 400 ng/mL) was 97.63%, the Emax (HBDH) was 4898.547 and the Ke0 (HBDH) was 0.46. For the same molecule, the “Systemic exposure in hypoxia” value ([3]; hypoxia) was “increased significantly”, the “Bioavailability under pathological conditions” value [3] was “increased significantly” and the Emax (AST) was 1091.001. For the same molecule, the Ke0 (AST) was 2.821, the AUC(0-t) [4] was 5710 ± 321 ng·h/mL and the AUC(0-inf) [4] was 8350 ± 2310 ng·h/mL. The CL/F [4] was 10.7 mL/min/kg, the Cmax [4] was 1010 ± 84.2 ng/mL and the MRT [4] was 7.14 ± 0.51 h. The Tmax [4] was 0.75 ± 0.16 h, the Vd/F [4] was 15.2 ± 8.77 L/kg and the half-life [4] was 19.9 ± 16 h.
`OCCc1ccc(O)cc1` [Tyrosol, tyrosol] showed an Emax (SOD) of 68.804, a Ke0 (SOD) of 0.043 and an Emax (LDH) of 483.057. It also gave a Ke0 (LDH) of 2.848, an Emax (CK) of 2289.882 and a Ke0 (CK) of 2.998. The “Change of CLZ/F in MDG compared with SDG” value ([1]; oral RC extract 2 g/kg) was “marked decreasing tendency; also recorded: decreased significantly”, the Tmax [1, 6] was 0.96 ± 0.1 h and the Tmax [1, 7] was about 1 h. It also gave an AUC(0-t) [1, 8] of 837 ± 66.8 ng·h/mL, an AUC(0-inf) [1, 8] of 1100 ± 258 ng·h/mL and a CL/F [1, 8] of 79.2 mL/min/kg. The Cmax [1, 8] was 143.4 ± 1.41 ng/mL, the MRT [1, 8] was 6.54 ± 0.91 h and the MRT inf [1, 8] was 16.8 ± 9.96 h. For the same molecule, the Vd/F [1, 8] was 94.4 ± 44.4 L/kg, the half-life [1, 8] was 15.6 ± 0.79 h and the “Stability RE (%)” value ([2]; 10 ng/mL) was 94.31%. For the same molecule, the “Stability RE (%)” value ([2]; 50 ng/mL) was 96.93%, the “Stability RE (%)” value ([2]; 400 ng/mL) was 97.75% and the “Stability RE (%)” value ([2]; 48 h, 10 ng/mL) was 85.44%. For the same molecule, the “Stability RE (%)” value ([2]; 48 h, 50 ng/mL) was 90.28%, the “Stability RE (%)” value ([2]; 10 days, 10 ng/mL) was 99.52% and the “Stability RE (%)” value ([2]; 10 days, 400 ng/mL) was 89.70%. The Emax (HBDH) was 7149.416, the Ke0 (HBDH) was 0.724 and the “Bioavailability under pathological conditions” value [3] was “increased significantly”. The Emax (AST) was 1213.835, the Ke0 (AST) was 2.998 and the AUC(0-t) [4] was 653 ± 63.2 ng·h/mL. The AUC(0-inf) [4] was 729 ± 49.2 ng·h/mL, the CL/F [4] was 115 mL/min/kg and the Cmax [4] was 132 ± 12.6 ng/mL. The MRT [4] was 5.59 ± 0.5 h, the MRT inf [4] was 9.86 ± 5.68 h and the Tmax [4] was 1.17 ± 0.41 h. For the same molecule, the Vd/F [4] was 97 ± 70.2 L/kg and the half-life [4] was 10 ± 7.64 h.
rhodiosin showed an Emax (SOD) of 72.933, a Ke0 (SOD) of 0.055 and an Emax (LDH) of 484.31. It also gave a Ke0 (LDH) of 2.998, an Emax (CK) of 2289.293 and a Ke0 (CK) of 2.998. It also gave an Emax (HBDH) of 4335.008, a Ke0 (HBDH) of 0.469 and an Emax (AST) of 1084.02. The Ke0 (AST) was 2.998.
